Starred links: 1 amine or outer side, 2 acyl side, 3 side chain; linkers in the order of their positions; H or OH if unused. Residues, ends and D or L forms follow the SMILES beside them. *: point of attachment. AFC = O=c1cc(C(F)(F)F)c2ccc(N*)cc2o1; Morpholide = C1CN(*)CCO1; Cbz = O=C(OCc1ccccc1)*; CO = O=C([*:1])[*:2]; CH2F = FC*
What was measured:
[1] = test system: purified Taenia solium cysteine protease; assay: Screen of AFC-linked synthetic substrates for cleavage (Step II); assay type: biochemical; conditions: pH 4.9, 18 h, 37° C
Procedure: In this step, the most efficacious substrate for detection of the cysteine protease (high Kcat substrate) was determined in vitro along with those substrates which were not well cleaved (low kcat substrates). From this point forth, the following conditions refer to all assays: “assay buffer” refers to 0.4 M Citrate, pH 4.9 (the pH optima of the protease). Incubation time was 18 hours at 37° C. These conditions were determined by our preliminary data to be best for kinetic evaluation of the protease. […] The experiments were conducted in […] Borosilicate mini-culture tubes (Fisher Scientific), and a fluorometer (Turner) was employed for detection of AFC cleavage.
Approximately 1 ug (or a proteolytically detectable amount) of the purified target cysteine protease was incubated individually, with 1 μg of each of the available substrates in 500 μL of assay buffer. During this setup, the substrate was pre-incubated in the assay buffer for a short period of time (20 minutes) in order to reach an equilibrated status before the addition of the protease. Cleavage assessments were based upon the property of the protease to cleave synthetic peptide substrates linked at the C-terminus to 7-Amino-4-Trifluoromethyl Coumarin (AFC) as previously described. AFC linked tripeptides, dipeptides, and monopeptides, (with a variety of permutations at P3-P1) were available from Enzyme Systems Products (Livermore, CA), and were used as the source of the subset. Following incubation of enzyme preparations overnight (18 h, 37 ° C.) with peptide in assay buffer (Citrate, pH 4.9, supplemented with 0.01 M cysteine), free AFC concentrations were measured fluorometrically (excitation […]). The proteolytic cleavage released the AFC group, which was measurable as a free molecule by a standard fluorometer and converted into molar quantities, based upon a previously established standard curve. The simplicity of AFC detection by the fluorometer was a key factor which quickened and simplified the procedures.
In the assay, 1 ug of the purified Taenia cysteine protease was added to a saturating amount of Z-Phe-Arg-AFC (4×10^−5 M) in assay buffer. The experiment was conducted in triplicate and repeated at least 5 times until we were certain that variability in AFC cleavage was not statistically significant.
Vmax was calculated for the cleavage of substrates by the purified target protease and Vmax was calculated for substrates cleaved by the crude mix protease using conventional kinetic modeling calculations already described in the art.

[2] = Observation of side effects in treated mice; assay type: in vivo; conditions: BALB/c mice; for side effects in mice, long-term study: 30 days treatment, 5 months follow-up
Procedure: FIG. 8. […] Each treated mouse was pre-injected intraperitoneally with inhibitor for two days. During treatment phase, each treated mouse received 1.48×10^−2 μg/μl of N2 daily for three weeks and every other day during the last week. Injections were carried out in 150 μl of dimethyl sulfoxide for each mouse. Both treated groups and positive controls were challenged intraperitoneally with 10 Taenia crassiceps cysts in 200 μl 0.15M PBS at the time of initial infection. After one month of infection, both groups were euthanized and cysts removed by washing with sterile 0.15M PBS. A minimum of two attached cysts were scored as multilobed (ML). […] (B) Graphically represents the effect of protease inhibitor treatment of BALB/c mice challenged with Taenia crassiceps cysts over a long-term period. Mice were divided into treated and untreated groups (5 mice/group).Each mouse in the treated group was pre-injected intraperitoneally with inhibitor for two days. Subsequently, all groups were challenged with 10 T. crassiceps cysts in 200 μl of 0.15M PBS. Treatment with inhibitor or placebo (0.15M PBS) was carried out every day for 30 days post-challenge. Cysts were left alone (untreated) for 5 months, and then euthanized. Cysts were then counted by visual inspection. Percent protection is based on the reduction of the total cyst number in comparison to control mice, which never received any treatment.
Mice in all groups survived without noticeable side effects (e.g., coat condition, tail dragging or paresis, etc).
Long-term studies were also conducted to determine over how long a period these inhibitors would maintain a protective effect. In a representative experiment shown here, mice were divided into treated and untreated groups (5 mice/group). Each mouse in the treated group was pre-injected intraperitoneally with inhibitor for two days. Subsequently, all groups were challenged with 10 T. crassiceps cysts in 200 μl 0.1 5M PBS. Treatment with inhibitor or placebo (0. 15M PBS) was carried out every day for 30 days post- challenge. […] Cysts were then counted by visual inspection. […]

Structure (SMILES) | cleavage as substrate (Vmax) [1] | side effects in mice, long-term study [2] | side effects / inhibitor toxicity in mice, short-term studies ([2]; one month, visual inspection)
CC(C)C[C@H](NC(=O)N1CCOCC1)C(=O)N[C@@H](Cc1ccc(O)cc1)C(=O)Nc1ccc2c(C(F)(F)F)cc(=O)oc2c1 [Mu-LY-AFC, Mu-Leu-Tyr-AFC] ({Morpholide-CO}-Leu-Tyr-{AFC}) | noncleavable |  | 
CC(C)C[C@H](NC(=O)OCc1ccccc1)C(=O)N[C@@H](CC(C)C)C(=O)N[C@@H](Cc1ccc(O)cc1)C(=O)CF [Z-LLY-FMK, Z-Leu-Leu-Tyr-FMK] (Cbz-Leu-Leu-Tyr-CH2F) |  | no side effects | no mice showed effects of inhibitor toxicity
CC(C)C[C@H](NC(=O)[C@H](CC(C)C)NC(=O)[C@H](CC(C)C)NC(=O)OCc1ccccc1)C(=O)CF [Z-LLL-FMK, Z-Leu-Leu-Leu-fluoromethylketone] (Cbz-Leu-Leu-Leu-CH2F) |  | no side effects | 

From patent US20030077653A1, “Method for the identification of active site protease inactivators” (The University of Georgia Research Foundation, Inc., priority 2000, published 2003)
